Values of other authors, collected in patent publication US20070149500A1, “Compounds, compositions, and methods” (priority 2003, published 2007).

System: A549 cells
Details: data provided by National Cancer Institute
In the case of `O=c1[nH]cc(F)c(=O)[nH]1` [5-fluorouracil], the GI50 is listed as 1 µM. In the case of `NC(=O)NO` [hydroxyurea], the GI50 is listed as 500 µM. In the case of `CC(=O)O[C@H]1C(=O)[C@@]2(C)[C@H]([C@H](OC(=O)c3ccccc3)[C@]3(O)C[C@H](OC(=O)[C@H](O)[C@@H](NC(=O)c4ccccc4)c4ccccc4)C(C)=C1C3(C)C)[C@]1(OC(C)=O)CO[C@@H]1C[C@@H]2O` [paclitaxel], the GI50 is given as 0.004 µM.
